Results: ChEMBL document CHEMBL1147774, “Synthesis of N-benzylated-2-aminoquinolines as ligands for the Tec SH3 domain” (Bioorg Med Chem Lett, 2006)

target: T1, Tyrosine-protein kinase Tec (Homo sapiens, UniProt P42680); assay: Binding affinity to Tec SH3 domain
T1 sequence (P42680 whole entry): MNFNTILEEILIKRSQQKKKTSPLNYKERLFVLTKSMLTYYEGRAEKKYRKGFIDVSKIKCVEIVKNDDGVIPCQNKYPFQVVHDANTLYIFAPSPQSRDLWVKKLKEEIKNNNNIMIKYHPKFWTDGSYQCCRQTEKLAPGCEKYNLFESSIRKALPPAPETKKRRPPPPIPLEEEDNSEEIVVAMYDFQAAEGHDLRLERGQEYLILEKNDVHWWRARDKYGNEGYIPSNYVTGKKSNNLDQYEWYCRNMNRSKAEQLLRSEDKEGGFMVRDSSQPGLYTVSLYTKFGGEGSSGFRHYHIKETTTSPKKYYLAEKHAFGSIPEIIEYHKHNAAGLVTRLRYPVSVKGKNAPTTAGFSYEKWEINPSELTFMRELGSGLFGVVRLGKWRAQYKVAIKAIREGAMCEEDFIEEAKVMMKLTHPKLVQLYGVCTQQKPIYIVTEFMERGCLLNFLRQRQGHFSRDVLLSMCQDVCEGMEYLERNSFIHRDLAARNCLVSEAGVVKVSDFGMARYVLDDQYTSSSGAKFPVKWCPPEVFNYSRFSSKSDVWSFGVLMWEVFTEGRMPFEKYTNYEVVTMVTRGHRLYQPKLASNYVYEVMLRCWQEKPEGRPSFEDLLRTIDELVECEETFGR

| Compound | Kd |
| --- | --- |
| Fc1ccccc1CNc1ccc2ccccc2n1 | 208 µM |
| Oc1cccc(CNc2ccc3ccccc3n2)c1 | 234 µM |
| Oc1ccc(CNc2ccc3ccccc3n2)cc1 | 292 µM |
| c1c[nH]c(CNc2ccc3ccccc3n2)c1 | 285 µM |

Stronger by Kd, values ahead:

| Kd | Compound |
| --- | --- |
| 193 µM | c1ccc(CNc2ccc3ccccc3n2)cc1 |
| 177 µM | Fc1cccc(CNc2ccc3ccccc3n2)c1 |
